This note sets out measurements from patent US9028845B2, “Chimeric immunomodulatory compounds and methods of using the same-IV” (Dynavax Technologies Corporation, priority 2001, dated 2015).

“Also recorded” adds a separate entry of the source.

The subject of this assay is human PBMCs. The assay can be described thus: Human PBMC cytokine response assay (IFN-γ and IFN-α in cell-free medium by ELISA), with or without cPLGA.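 On IFN-α (pg/ml) mean: 20 µg/mL compound for 24 hours.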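 On IFN-γ (pg/ml) mean: 20 µg/mL compound for 24 hours.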 Type of assay: cell-based. The settings on record: for immunomodulatory activity (IFN-γ / IFN-α secretion), in words: used alone (no cPLGA); for IFN-a mean / IFN-g mean: mean of donors 28250-28253; for IFN-a (pg/ml) mean / IFN-g (pg/ml) mean: mean of donors 28185-28188; for IFN-a (pg/ml) ×2: mean ×2; for IFN-g (pg/ml) ×4: mean ×4. (ELISA stands for enzyme-linked immunosorbent assay.)

The mark [1] stands for this setting: Table 25, donor 28250, polynucleotides/spacers at amounts equivalent to the CIC, spacers alone 9 uM.
Where [2] appears, read: donor 28066, 20 ug/ml, 24 h, + PLGA = premixed with 100 μg/ml cPLGA.
[3] abbreviates: donor 28067, 20 ug/ml, 24 h, + PLGA = premixed with 100 μg/ml cPLGA.
Setting [4] is: donor 28068, 20 ug/ml, 24 h, + PLGA = premixed with 100 μg/ml cPLGA.
Setting [5] is: mean of Donors 3-4, 20 μg/ml, 24 h.
Setting [6] is: mean of Donors 9-12, 20 μg/ml, 24 h.
Where [7] appears, read: mean of donors 28065-28068, 20 ug/ml, 24 h, + PLGA = premixed with 100 μg/ml cPLGA.
The mark [8] stands for this setting: mean of donors 110, 112, 119, 120, Table 14.
[9] abbreviates: mean of donors 28057-28060, Table 16.
Setting [10] is: Table 24, mean of donors 28234-28237.

With “5′-AGATGAT-3′-HEG-5′-ACGTTCG-3′-HEG-5′-TCGTCGA-3′ [Compound C-60]”, the IFN-α is, setting by setting: (Table 13, donor 28156) 5 pg/mL; (Table 13, donor 28157) 22 pg/mL; (Table 13, donor 28158) 3 pg/mL; (Table 13, donor 28159) 1 pg/mL. Further, the IFN-γ by setting is: (Table 13, donor 28156) 304 pg/mL; (Table 13, donor 28157) 209 pg/mL; (Table 13, donor 28158) 26 pg/mL; (Table 13, donor 28159) 38 pg/mL. The substance also showed an IFN-α mean (Table 13, mean of donors) of 8 pg/mL. The substance further showed an IFN-γ mean (Table 13, mean of donors) of 144 pg/mL.
“5′-TCGTCGA-3′-(HEG)6-5′-TCGTCGA-3′ (phosphodiester linkages) [Compound C-36]”: the “activity when formulated with cPLGA, in words” value (“activity when formulated” below) is “significantly more active when formulated with cPLGA” and the “immunomodulatory activity (IFN-γ / IFN-α secretion), in words” value is “inactive as CICs alone”.
Consider “5′-TCGACGT-3′ [Compound P-14, reference compound]”, for which the IFN-a reads like this: (Table 25, donor 28250) 16 pg/mL; (Table 25, donor 28251) 16 pg/mL; (Table 25, donor 28252) 16 pg/mL; (Table 25, donor 28253) 16 pg/mL. In addition, the IFN-g reads like this: under setting [1], 10 pg/mL; (Table 25, donor 28251) 34 pg/mL; (Table 25, donor 28252) 11 pg/mL; (Table 25, donor 28253) 10 pg/mL. In addition, the IFN-a mean (Table 25) was found to be 16 pg/mL. For the same substance, the IFN-g mean (Table 25) is 16 pg/mL.
For “5′-TCGTCG-3′ [Compound P-2, reference compound]”, the “immunomodulatory activity (IFN-γ / IFN-α secretion), in words” value is given as “did not have immunomodulatory activity; also recorded: had no activity”. Besides, under “Donor 3, 20 μg/ml, 24 h”, the “IFN-α (pg/ml) Donor 3” value is 0 pg/mL and the “IFN-γ (pg/ml) Donor 3” value turned out to be 0 pg/mL. Further, where the note is “Donor 4, 20 μg/ml, 24 h”, the “IFN-α (pg/ml) Donor 4” value was 40 pg/mL and the “IFN-γ (pg/ml) Donor 4” value amounted to 4 pg/mL. In addition, where the note is “Donor 9, 20 μg/ml, 24 h”, the “IFN-α Donor 9” value is listed as 0 and the “IFN-γ Donor 9” value came out at 2. For the same substance, where the note is “Donor 10, 20 μg/ml, 24 h”, the “IFN-α Donor 10” value is given as 2 and the “IFN-γ Donor 10” value turned out to be 3. Also, for the setting “Donor 11, 20 μg/ml, 24 h”, the “IFN-α Donor 11” value is listed as 1 and the “IFN-γ Donor 11” value was 1. Also, for the setting “Donor 12, 20 μg/ml, 24 h”, the “IFN-α Donor 12” value is 4 and the “IFN-γ Donor 12” value amounted to 2. This substance yielded an IFN-a (Table 25, donor 28250) of 16 pg/mL. Further, the IFN-g under setting [1] is 7 pg/mL. For the setting “Table 25, donor 28251”, this substance returned an IFN-a of 16 pg/mL and an IFN-g of 25 pg/mL. Under “Table 25, donor 28252”, the IFN-a came to 25 pg/mL and the IFN-g worked out at 53 pg/mL. Further, for the setting “Table 25, donor 28253”, the IFN-a is 16 pg/mL and the IFN-g was 1 pg/mL. For the setting “Table 25”, this substance displayed an IFN-a mean of 18 pg/mL and an IFN-g mean of 22 pg/mL. The “IFN-γ (pg/ml) 28065” value (donor 28065 (high background), 20 ug/ml, 24 h, + PLGA = premixed with 100 μg/ml cPLGA, 1000 = outside assay limits) turned out to be 79 pg/mL. The “IFN-α (pg/ml) 28065” value (donor 28065, 20 ug/ml, 24 h, + PLGA = premixed with 100 μg/ml cPLGA) came to 0 pg/mL. For the same substance, under setting [2], the “IFN-α (pg/ml) 28066” value is 3 pg/mL and the “IFN-γ (pg/ml) 28066” value was determined as 1 pg/mL. Under setting [3], the “IFN-α (pg/ml) 28067” value is 0 pg/mL and the “IFN-γ (pg/ml) 28067” value was determined as 1 pg/mL. Under setting [4], the “IFN-α (pg/ml) 28068” value was found to be 0 pg/mL and the “IFN-γ (pg/ml) 28068” value is 0 pg/mL. Also, under setting [5], the “IFN-α (pg/ml) mean” value was 20 pg/mL and the “IFN-γ (pg/ml) mean” value amounted to 2 pg/mL. Under setting [6], this substance had an IFN-α mean of 2 and an IFN-γ mean of 2. Under setting [7], the “IFN-α (pg/ml) mean” value worked out at 1 pg/mL and the “IFN-γ (pg/ml) mean” value stood at 20 pg/mL.
With “5′-TCGT-3′-HEG-5′-TCGT-3′-HEG-5′-TCGT-3′-HEG-5′-TCGT-3′-HEG-5′-TCGT-3′ [Compound C-44]”, the “activity when formulated” value was “induced considerable IFN-γ and IFN-α when formulated with cPLGA”. Under “Table 10, donor 28042”, this substance had an IFN-α of 0 pg/mL and an IFN-γ of 238 pg/mL. Where the note is “Table 10, donor 28043”, this substance displayed an IFN-α of 12 pg/mL and an IFN-γ of 359 pg/mL. Under “Table 10, donor 28044”, this substance showed an IFN-α of 60 pg/mL and an IFN-γ of 484 pg/mL. In addition, for the setting “Table 10, donor 28045”, the IFN-α came to 1 pg/mL and the IFN-γ amounted to 51 pg/mL. Further, for the setting “Table 10, mean of donors”, the IFN-α mean was found to be 18 pg/mL and the IFN-γ mean is 283 pg/mL. Moreover, the “IFN-γ induction, in words” value (used alone) is reported as “induce IFN-γ when used alone”.
“5′-AGATGAT-3′-HEG-5′-TCGTCGA-3′-HEG-5′-ACGTTCG-3′ [Compound C-59]”: the “IFN-α” value was 2 pg/mL (donor 110, Table 14); 6 pg/mL (donor 112, Table 14); 2 pg/mL (donor 119, Table 14); 2 pg/mL (donor 120, Table 14). Moreover, the “IFN-γ” value amounted to 256 pg/mL (donor 110, Table 14); 52 pg/mL (donor 112, Table 14); 28 pg/mL (donor 119, Table 14); 40 pg/mL (donor 120, Table 14). Besides, under setting [8], the “IFN-α (pg/ml) mean” value was 3 pg/mL. The “IFN-γ (pg/ml) mean” value under setting [8] was 94 pg/mL.
5′-TCG-3′-(ab)3-5′-T-3′ [Compound C-91]: the “activity when formulated” value is on record as “significant activity when formulated on cPLGA” and the “immunomodulatory activity (IFN-γ / IFN-α secretion), in words” value was “neither CIC was active on its own”. Under “donor 28185, Table 15”, the “IFN-a” value turned out to be 9 pg/mL and the “IFN-g” value is 3 pg/mL. Moreover, for the setting “donor 28186, Table 15”, the “IFN-a” value amounted to 46 pg/mL and the “IFN-g” value was 4 pg/mL. Moreover, for the setting “donor 28187, Table 15”, the “IFN-a” value stood at 37 pg/mL and the “IFN-g” value was found to be 6 pg/mL. Besides, under “donor 28188, Table 15”, the “IFN-a” value was 4 pg/mL and the “IFN-g” value came out at 7 pg/mL. Besides, for the setting “Table 15”, the “IFN-a (pg/ml) mean” value was found to be 24 pg/mL, the “IFN-g (pg/ml) mean” value came out at 5 pg/mL, the “IFN-a (pg/ml) ×2” value was determined as 48 pg/mL and the “IFN-g (pg/ml) ×4” value stood at 20 pg/mL.
Consider “5′-TCGTCG-3′-(TEG)8-5′-T-3′ [Compound C-15]”, for which the “activity when formulated” value is reported as “all had significant activity when formulated on cPLGA” and the “immunomodulatory activity (IFN-γ / IFN-α secretion), in words” value is “None of the CICs was active when used alone”. Under “donor 28057, Table 16”, the “IFN-α” value came to 0 pg/mL and the “IFN-γ” value is 5 pg/mL. Further, where the note is “donor 28058, Table 16”, the “IFN-α” value was found to be 0 pg/mL and the “IFN-γ” value was 3 pg/mL. Under “donor 28059, Table 16”, the “IFN-α” value turned out to be 0 pg/mL and the “IFN-γ” value came out at 0 pg/mL. Besides, under “donor 28060, Table 16”, the “IFN-α” value is 0 pg/mL and the “IFN-γ” value amounted to 1 pg/mL. Also, under setting [9], the “IFN-α (pg/ml) mean” value came to 0 pg/mL and the “IFN-γ (pg/ml) mean” value was 2 pg/mL.
Turning to “HEG-5′-TCGTCG-3′-HEG-5′-ACGTTCG-3′-HEG-5′-AGATGAT-3′-TEG [Compound C-30]”, the IFN-α reads like this: (Table 9, donor 28089) 134 pg/mL; (Table 9, donor 28090) 29 pg/mL; (Table 9, donor 28098) 52 pg/mL; (Table 9, donor 28099) 47 pg/mL. Further, the IFN-γ was 0 pg/mL (Table 9, donor 28089); 6 pg/mL (Table 9, donor 28090); 12 pg/mL (Table 9, donor 28098); 20 pg/mL (Table 9, donor 28099). Also, for the setting “Table 9, mean of donors”, the IFN-α mean was 65 pg/mL. In addition, for the setting “Table 9, mean of donors”, the IFN-γ mean was 9 pg/mL.
Where the note is “Table 24, donor 28234”, “(5′-TCGTCGA-3′-HEG)2-glycerol-HEG-5′-AACGTTC-3′-HEG-5′-TCGA-3′ [Compound C-97]” came in with an IFN-α of 16 pg/mL and an IFN-γ of 10 pg/mL. Under “Table 24, donor 28235”, the IFN-α was 16 pg/mL and the IFN-γ is 119 pg/mL. In addition, where the note is “Table 24, donor 28236”, the IFN-α was 140 pg/mL and the IFN-γ stood at 269 pg/mL. For the setting “Table 24, donor 28237”, this substance showed an IFN-α of 16 pg/mL and an IFN-γ of 980 pg/mL. Under setting [10], this substance showed an IFN-α mean of 47 pg/mL and an IFN-γ mean of 345 pg/mL. Also, where the note is “donor 28185, Table 15”, the “IFN-a” value came out at 307 pg/mL and the “IFN-g” value was determined as 259 pg/mL. For the same substance, for the setting “donor 28186, Table 15”, the “IFN-a” value came to 71 pg/mL and the “IFN-g” value amounted to 16 pg/mL. In addition, under “donor 28187, Table 15”, the “IFN-a” value came to 4 pg/mL and the “IFN-g” value worked out at 125 pg/mL. Also, for the setting “donor 28188, Table 15”, the “IFN-a” value came out at 2 pg/mL and the “IFN-g” value worked out at 5 pg/mL. For the same substance, where the note is “Table 15”, the “IFN-a (pg/ml) mean” value was found to be 96 pg/mL, the “IFN-g (pg/ml) mean” value turned out to be 101 pg/mL, the “IFN-a (pg/ml) ×2” value turned out to be 192 pg/mL and the “IFN-g (pg/ml) ×4” value is 405 pg/mL. For the same substance, the “IFN-α induction, in words” value (used alone) is reported as “reduction of IFN-α induction”.
As to “5′-TCGTCGA-3′-HEG-5′-AACGTTC-3′-HEG-5′-TCGTCGA-3′ [Compound C-55]”, the IFN-α came to 9 pg/mL (Table 13, donor 28156); 5 pg/mL (Table 13, donor 28157); 63 pg/mL (Table 13, donor 28158); 3 pg/mL (Table 13, donor 28159). For the same substance, the IFN-γ is, setting by setting: (Table 13, donor 28156) 511 pg/mL; (Table 13, donor 28157) 566 pg/mL; (Table 13, donor 28158) 55 pg/mL; (Table 13, donor 28159) 186 pg/mL. In addition, the IFN-α mean (Table 13, mean of donors) is 20 pg/mL. The IFN-γ mean (Table 13, mean of donors) stood at 329 pg/mL.
